Reference: the supplement of paper PMC11061612

How the values were obtained:
[1] = tested on: RC-K8 (B-Cell Non-Hodgkin's Lymphoma); assay: combination Emax (second highest fraction inhibited in the dose matrix, 72 h); higher = more inhibition; extreme values may be limits of the assay
Summary of the method: (§1)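 After 24 hours at 37°C and 5% CO2 in 1536-well plates, cells in DMEM/F12 or RPMI plus 10% FBS received two-drug dose matrices for 72 hours. Viability came from CellTiter-Glo 2.0 luminescence and was scaled as inhibition, anchored at 0 by vehicle wells and at 1 by blank wells. Combination Emax is taken as the second-highest inhibition in the matrix, and Bliss excess as the observed combination effect less EA + EB − EA·EB, with EA and EB the single-agent effects.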

KELLY (Neuroblastoma) = assay: as above
Summary of the method: as §1

[2] = tested on: LB831-BLC (Bladder Carcinoma); assay: as above
Summary of the method: as §1

[3] = tested on: LNCaP-Clone-FGC (Prostate Carcinoma); assay: as above
Summary of the method: as §1

[4] = tested on: NCI-H1869 (Non-Small Cell Lung Carcinoma); assay: as above
Summary of the method: as §1

[5] = tested on: TE-9 (Esophageal Squamous Cell Carcinoma); assay: as above
Summary of the method: as §1

[6] = tested on: CAL-148 (Breast Carcinoma); assay: as above
Summary of the method: as §1

[7] = tested on: HCC1806 (Breast Carcinoma); assay: as above
Summary of the method: as §1

[8] = tested on: OVCA420 (Ovarian Carcinoma); assay: as above
Summary of the method: as §1

[9] = tested on: NCI-H82 (Small Cell Lung Carcinoma); assay: as above
Summary of the method: as §1

[10] = tested on: KYSE-520 (Esophageal Squamous Cell Carcinoma); assay: as above
Summary of the method: as §1

[11] = tested on: CaR-1 (Colorectal Carcinoma); assay: as above
Summary of the method: as §1

[12] = tested on: DoTc2-4510 (Cervical Carcinoma); assay: as above
Summary of the method: as §1

[13] = tested on: NCI-H1869 (Non-Small Cell Lung Carcinoma); assay: Bliss excess, mean over the matrix (fraction); higher = more synergy
Summary of the method: as §1
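Throughout, for Bliss excess, mean over the matrix: after 72 h of two-drug dosing.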

SMILES | combination Emax [1] | combination Emax (KELLY (Neuroblastoma)) | combination Emax [2] | combination Emax [3] | combination Emax [4] | combination Emax [5] | combination Emax [6] | combination Emax [7] | combination Emax [8] | combination Emax [9] | combination Emax [10] | combination Emax [11] | combination Emax [12] | Bliss excess [13]
CN(C)CCCOc1ccc(-c2ccc3ncc4c(c3c2)n(C2CCOCC2)c(=O)n4C)cn1 [AZD0156] + O=C(c1cc(Cc2n[nH]c(=O)c3ccccc23)ccc1F)N1CCN(C(=O)C2CC2)CC1 [Olaparib] (first compound max 3 µM, partner max 3 µM) | 0.318 | 0.607 | 0.26 | 0.639 | 0.19 | 0.353 | 0.604 | 0.479 | 0.23 | 0.382 | 0.324 | 0.207 | 0.206 | -0.0306
C=CCn1c(=O)c2cnc(Nc3ccc(N4CCN(C)CC4)cc3)nc2n1-c1cccc(C(C)(C)O)n1 [AZD1775] + C1CN(CCC1(C(=O)N[C@@H](CCO)C2=CC=C(C=C2)Cl)N)C3=NC=NC4=C3C=CN4 [Capivasertib] (first compound max 3 µM, partner max 3 µM) | 0.652 | 1 | 0.75 | 1 | 0.388 | 0.816 | 0.92 | 0.933 | 0.59 | 0.884 | 0.598 | 0.69 | 0.723 | 0.0342
CC1(C)CCC(CN2CCN(c3ccc(C(=O)NS(=O)(=O)c4ccc(NCC5CCOCC5)c([N+](=O)[O-])c4)c(Oc4cnc5[nH]ccc5c4)c3)CC2)=C(c2ccc(Cl)cc2)C1 [Venetoclax] + Cn1cnc2c(F)c(Nc3ccc(Br)cc3Cl)c(C(=O)NOCCO)cc21 [Selumetinib] (first compound max 1 µM, 7x7, partner max 3 µM) | 0.227 | 1 | 0.142 | 0.187 |  | 0.0846 | 0.248 | 0.359 | 0.403 | 0.161 | 0.299 | 0.103 | 0.268 | 
